Data: US8685934B2, “Methods for treating extreme insulin resistance in patients resistant to previous treatment with other anti-diabetic drugs employing an SGLT2 inhibitor and compositions thereof” (Bristol-Myers Squibb Company, priority 2009, dated 2014)
Like-named read-outs stand apart in the source and are kept apart here.

Experiments:
[1] = tested on: highly insulin-resistant T2DM patients poorly controlled with insulin plus metformin and/or thiazolidinediones; settings: for 24-hour urinary glucose, increase / Standing diastolic blood pressure, mean change / Standing systolic blood pressure, mean change / Serum hematocrit, median increase from baseline / Urinary glucose excretion, mean change from baseline: week 12; for Glomerular filtration rate, change compared to baseline: end of treatment; for Urinary glucose excretion, mean change from baseline: placebo −1.5
Description: This was a randomized, single- and double-blind, three-arm parallel group, placebo-controlled trial to determine if dapagliflozin effectively lowers hyperglycemia in highly insulin-resistant T2DM patients poorly controlled with insulin plus metformin and/or thiazolidinediones. The trial consisted of a qualification period of 10 to 21 days, a treatment phase of 12 weeks, and a follow-up phase of 4 weeks. During qualification and until day 1, patients maintained their stable dose of open-label OADs, as well as their stable dose of prescribed insulin.
The treatment phase utilized an adaptive trial design with two cohorts: Cohort 1, the insulin dose-setting group; and Cohort 2, the main experimental group. The purpose of Cohort 1 was to determine the ideal starting dose of insulin least likely to cause hypoglycemia when dapagliflozin would be added. In Cohort 1, four patients were assigned to 20 mg single-blind dapagliflozin on day 1 after having their insulin dose decreased by 50%, the greatest decrement possible in this adaptive design. These patients underwent 48-hour continuous blood glucose monitoring (CGM) during the first week of treatment. Pursuant to the protocol, if at least one patient recorded a CGM value ≦100 mg/dL, confirmed by self-monitoring of blood glucose (SMBG), the total daily insulin dose for patients in Cohort 2 would be set at 50% of their usual dose that is, at an average of 52 to 54 units of insulin daily, and lesser dose reductions of insulin would not be tested. […] Patients in Cohort 2 were randomized on day 1 in a 1:1:1 ratio to double-blind placebo, 10 mg dapagliflozin or 20 mg dapagliflozin once daily, in addition to their open-label OAD(s) and 50% of their usual daily insulin, that is an average of 52 to 54 units of insulin daily.
Safety outcomes were assessed by treatment-emergent adverse events, vital signs, ECGs and laboratory measurements, including 24-hour urine collections for volume and electrolytes.

[2] = tested on: highly insulin-resistant T2DM patients poorly controlled with insulin plus metformin and/or thiazolidinediones
Description: Criteria for management of hyperglycemia were determined by fasting plasma glucose (FPG) measurements. For any FPG level >240 mg/dL at weeks 4 and 6, >220 mg/dL at week 8, or >200 mg/dL at week 10, the patient would be scheduled for a follow-up visit in 3 to 5 days. If FPG was still above the threshold at follow-up, a visit was scheduled in order to increase the insulin dose as clinically indicated. Patients who further lacked glycemic control despite up-titration, or whose modified insulin dose exceeded baseline, were discontinued from blinded treatment and entered into follow-up.
All patients were on insulin-sensitizer therapy for at least 6 weeks prior to enrollment and insulin-based therapy for at least 12 weeks prior to enrollment. The study protocol defined insulin-sensitizer therapy as metformin (stable dose ≧1000 mg) and/or pioglitazone (stable dose ≧30 mg) or rosiglitazone (stable dose 4 mg). Insulin-based therapy was defined as subcutaneous insulin for at least 12 weeks prior to enrollment, with 2 minimum insulin daily dose equivalent to 50 units (median 85 to 93 units across all study arms) of U100 insulin per day. The insulin regimen must have been stable for at least 6 weeks. In addition to 10 mg dapagliflozin or 20 mg dapagliflozin daily or placebo, 74.6% of patients received metformin (≧1000 mg daily) plus insulin; 16.9% of patients received metformin (≧1000 mg daily) plus pioglitazone (≧30 mg daily) or rosiglitazone (4 mg daily) plus insulin and 8.5% of patients received pioglitazone (≧30 mg daily) or rosiglitazone (4 mg daily) plus insulin.
Patients in Cohort 1 were evaluated for safety only. Patients in Cohort 2 were evaluated for safety and efficacy. The primary efficacy measure was change from baseline in HbAlc, at week 12, last observation carried forward (LOCF). If no week 12 assessment was available, the last observation prior to week 12 was used. Secondary efficacy measures included changes from baseline at week 12 (LOCF) in FPG and insulin dose, the proportion of patients achieving a decrease in HbAlc>0.5% from baseline at week 12 (LOCF), and the proportion of patients achieving HbAlc<7% at week 12 (LOCF). Tertiary endpoints included changes from baseline in total body weight and in postprandial glucose (PPG) measured by an oral glucose tolerance test (OGTT).
Patients in Cohort 2 were evaluated for safety and efficacy. The primary efficacy measure was change from baseline in HbAlc at week 12, last observation carried forward (LOCF). The analysis was done excluding data after up-titration of insulin. If no week 12 assessment was available, the last observation prior to week 12 was used.
For Cohort 2, the sample size target of 22 patients per treatment group was chosen to allow for the calculation of 95% confidence intervals for the primary endpoint with a half-width of 0.42% for each treatment group. This assumed a 1% standard deviation for the primary endpoint in each of the dapagliflozin and placebo arms. With the same assumption, the half-width of a 95% confidence interval for the difference between any two treatment mean changes was estimated to be 0.59%. The primary efficacy data set consisted of all randomized patients who took at least one dose of double-blind study medication during the treatment phase. The analyses of the efficacy variables (except change from baseline in insulin dose) were done excluding data after up-titration of insulin. The analyses for changes from baseline in HbAlc, FPG, insulin dose, and total body weight at week 12 (LOCF) were performed using an analysis of covariance (ANCOVA) model with treatment group as an effect and baseline value as a covariate. Point estimates and 95% confidence intervals were calculated for mean changes within each treatment group and for differences in mean changes between the dapagliflozin and placebo groups.

[3] = Dapagliflozin 10 mg + insulin + OAD, excludes data after insulin up-titration
[4] = Dapagliflozin 10 mg + insulin + OAD, week 12 LOCF
[5] = Dapagliflozin 10 mg + insulin + OAD, week 12 LOCF, ANCOVA-adjusted, excludes data after insulin up-titration
[6] = Dapagliflozin 10 mg + insulin + OAD, week 12 LOCF, ANCOVA-adjusted, excludes data after insulin up-titration, listed as dapagliflozin
[7] = Dapagliflozin 10 mg + insulin + OAD, week 12 LOCF, excludes data after insulin up-titration
[8] = Dapagliflozin 10 mg + insulin + OAD, week 12 LOCF, of 23 patients, excludes data after insulin up-titration
[9] = Dapagliflozin 20 mg + insulin + OAD, excludes data after insulin up-titration

## CCOc1ccc(Cc2cc([C@@H]3O[C@H](CO)[C@@H](O)[C@H](O)[C@H]3O)ccc2Cl)cc1 [Dapagliflozin, (2S,3R,4R,5S,6R)-2-(4-chloro-3-(4-ethoxybenzyl)phenyl)-6-(hydroxymethyl)tetrahydro-2H-pyran-3,4,5-triol]
[1]; 10 mg dapagliflozin
  24-hour urinary glucose, increase: ~85 grams per day
  Standing diastolic blood pressure, mean change: −1.2 mm Hg
  Standing systolic blood pressure, mean change: −7.2 mm Hg
[1]; 20 mg dapagliflozin
  Supine diastolic blood pressure, mean change: −5.8 mm Hg
  Supine systolic blood pressure, mean change: −5.5 mm Hg
  24-hour urinary glucose, increase: ~85 grams per day
  Standing diastolic blood pressure, mean change: −3.9 mm Hg
  Standing systolic blood pressure, mean change: −6.1 mm Hg
[1]; dapagliflozin 10 mg
  Serum uric acid, median change from baseline: -0.30 mg/dL
  Glomerular filtration rate, change compared to baseline: −0.84 mL/min/1.73 m^2
  Serum hematocrit, median increase from baseline: 2.5%
  Urinary glucose excretion, mean change from baseline: 83.5 g/24 h
[1]; dapagliflozin 10 mg, increased from 1921.0 mL at baseline
  Mean 24-hour urine output on treatment: 2285.8 mL
[1]; dapagliflozin 20 mg
  Serum uric acid, median change from baseline: -0.30 mg/dL
  Glomerular filtration rate, change compared to baseline: 1.45 mL/min/1.73 m^2
  Serum hematocrit, median increase from baseline: 3.05%
  Urinary glucose excretion, mean change from baseline: 85.2 g/24 h
[1]; dapagliflozin 20 mg, increased from 1808.8 mL at baseline
  Mean 24-hour urine output on treatment: 2253.1 mL
[2]; 10 and 20 mg dapagliflozin
  Reductions in HbAlc and improvements over placebo in FPG and PPG, dose relation, in words: dose-dependent
[2]; Cohort 2, week 12
  Change from baseline in total daily insulin dose, in words: no appreciable change
[2]; [3]
  Fasting plasma glucose, mean (SD), End of Double-blind (Week 12 LOCF): 160.5 (38.7) mg/dL
  Weight, mean (SD), End of Double-blind (Week 12 LOCF): 98.2 (9.4) kg
[2]; Dapagliflozin 10 mg + insulin + OAD, includes data after insulin up-titration, U = units of U100 insulin
  Total daily insulin dose, mean (SD), End of Double-blind (Week 12 LOCF): 51.3 (20.1) U
[2]; Dapagliflozin 10 mg + insulin + OAD, measured at 120 minutes by OGTT, excludes data after insulin up-titration
  Postprandial glucose, mean (SD), End of Double-blind (Week 12 LOCF): 286.0 (55.1) mg/dL
[2]; [4]
  Fasting plasma glucose change from baseline, difference vs placebo + insulin + OAD, mean (95% CI): −15.4 (−38.4 to 7.5) mg/dL
  HbA1c change from baseline, difference vs placebo + insulin + OAD, mean (95% CI): −0.70 (−1.08 to −0.32) %
  Patients with ↓ HbA1c ≧ 0.5%, difference in proportions vs placebo + insulin + OAD (95% CI): 49.4 (20.1 to 72.4) %
  Total daily insulin dose change from baseline, difference vs placebo + insulin + OAD, mean (95% CI): −3.1 (−10.7 to 4.6) U
  Weight change from baseline, difference vs placebo + insulin + OAD, mean (95% CI): −2.6 (−4.0 to −1.2) kg
[2]; Dapagliflozin 10 mg + insulin + OAD, week 12 LOCF, 120 minutes by OGTT, excludes data after insulin up-titration
  Postprandial glucose, change from baseline, mean (95% CI): −34.3 (−67.5 to −1.1) mg/dL
[2]; [5]
  Fasting plasma glucose, change from baseline, mean (95% CI): 2.4 (−13.6 to 18.3) mg/dL
  HbA1c, change from baseline, mean (95% CI): −0.61 (−0.87 to −0.36) %
  Weight, change from baseline, mean (95% CI): −4.5 (−5.5 to −3.5) kg
[2]; [6]
  Fasting plasma glucose, change from baseline, mean (95% CI): 2.4 mg/dL
  Weight, change from baseline, mean (95% CI): -4.5 kg
[2]; Dapagliflozin 10 mg + insulin + OAD, week 12 LOCF, ANCOVA-adjusted, includes data after insulin up-titration
  Total daily insulin dose, change from baseline, mean (95% CI): −1.4 (−6.6 to 3.9) U
[2]; [7]
  Patients with HbA1c < 7.0%, (%), response: 13.0%
  Patients with ↓ HbA1c ≧ 0.5%, (%), response: 65.2%
[2]; Dapagliflozin 10 mg + insulin + OAD, week 12 LOCF, listed as dapagliflozin
  HbA1c change from baseline, difference vs placebo + insulin + OAD, mean (95% CI): −0.70%
[2]; [8]
  Patients with HbA1c < 7.0%, No., response: 3
  Patients with ↓ HbA1c ≧ 0.5%, No., response: 15
[2]; Dapagliflozin 10 mg once daily + insulin (50% of usual dose) + OAD, Cohort 2, excludes data after insulin up-titration
  HbA1c, mean (SD), End of Double-blind (Week 12 LOCF): 7.8 (0.7) %
[2]; [9]
  Fasting plasma glucose, mean (SD), End of Double-blind (Week 12 LOCF): 149.4 (32.0) mg/dL
  Weight, mean (SD), End of Double-blind (Week 12 LOCF): 97.8 (14.1) kg
